{"source": "patent US6368604B1", "about": "“Non-pyrogenic derivatives of lipid A” (priority 1997, dated 2002)", "key": {"HIV-1BAL": {"system": "HIV-1BAL", "test": "Replication of HIV-1BAL in human PBMC-derived monocytes (p24 ELISA)", "type": "cell-based", "conditions": "1000, 100 and 10 ng/ml for 24 hours before infection; p24 after a further 19 days", "description": "FIG. 5. Lipid A antagonist, lipid IVA, inhibits HIV replication. PBMCs were treated with synthetic lipid IVA at 1000 ng/ml, 100 ng/ml and 10 ng/ml for 24 hours. The treated cells were subsequently infected with 0.200 ng of HIV-1BAL (Cocchi et al, supra) for 2 hours, washed twice and incubated for a further 19 days. Culture supernatants were then collected and the level of p24 in these supernatants was measured by ELISA (R&D Systems). […] Figure Legend:\nTo investigate the utility of the aforementioned findings, we investigated whether commercially available synthetic lipid IVA (ICN Inc.) suppressed the replication of HIV-1BAL in human PBMC-derived monocytes. Therefore, PBMCs were obtained as outlined in Section 6, see above, and placed into 12 well culture flat-bottom plate and incubated in CM (see example 1) for […] at 37° C. in 5% Co2. Non-adherent cells were removed and the cells were given fresh media every 2 days. After 6 days, the adherent PBMCs were treated with synthetic lipid IVA at 1000 ng/ml, 100 ng/ml and 10 ng/ml for 24 hours. […] Culture supernatants were then collected and the level of p24 in these supernatants was measured by ELISA (R&D Systems).\nPBMC-derived monocytes were obtained as outlined in Section 8, see above. […] Culture supernatants were then collected and the level of p24 in these supernatants was measured by ELISA (R&D Systems)."}, "human PBMCs [1]": {"system": "human PBMCs", "test": "β chemokine (MIP-1α, MIP-1β, RANTES) secretion from human PBMCs, dose and time course, capture ELISA", "type": "cell-based"}, "human PBMCs [2]": {"system": "human PBMCs", "test": "LPS antagonist activity: TNFα from human PBMCs stimulated with W3110 LPS mixed with test preparation", "type": "cell-based", "conditions": "1 μg/ml mixed with W3110 LPS 10 ng/ml, 8 hr", "description": "(§1) Quantitation of TNFα, IL-1β, IL-6, MIP-1α and MIP-1β in these culture supernatants was achieved by capture ELISA (R&D Systems).\nW3110 LPS (also cultured at 37° C.) from 1 ng/ml to 100 ng/ml alone and W3110 LPS (10 ng/ml) mixed with synthetic lipid IVA (1 μg/ml) were used as controls."}, "human PBMCs [3]": {"system": "human PBMCs", "test": "Human PBMC activation assay: TNFα, IL-1β, IL-6 in culture supernatants by capture ELISA", "type": "cell-based", "conditions": "human PBMC culture supernatants after stimulation, 1 μg/ml, 8 hr", "description": "50 ml of whole blood is mixed with an equal volume of RPMI (Life Technologies) and PBMCs are isolated by density gradient using lymphocyte separation medium according to the manufacturer's directions (Organon). The PBMCs are washed twice with RPMI then resuspended in 6 ml of ice cold sterile water and placed on ice for 30 sec to lyse the erythrocytes. The osmolarity is adjusted by adding 2 ml of ice cold 3.5% (w/v) NaCl; the PBMCs are harvested by centrifugation, washed with RPMI and resuspended in complete medium (CM; RPMI containing pyruvate, glutamine, PenStrep, and 10% endotoxin-free human AB serum (Life Technologies) at a density of 6×10^6 PBMCs/ml. CM containing the preparations to be assayed are placed into duplicate wells of a 96-well flat bottom culture late (Costar) at double the target final concentration. An equal volume of CM containing the PBMCs then is added to these wells and the culture plates are incubated at 37° C. in 5% CO2 for 8 hr. The supernatants are then removed and stored at […] Quantitation of TNFα, IL-1β, IL-6, MIP-1α, MIP-1β and RANTES in these culture supernatants is achieved by capture ELISA (R&D Systems).\nas §1\nThis observation was reproduced using four unrelated PBMC donors and two separate LPS preparations. […]"}, "mice": {"system": "mice", "conditions": "cited from earlier work"}, "HIV-1": {"system": "HIV-1", "conditions": "in vivo; cited from earlier work"}}}
{"molecule": "CCCCCCCCCCC[C@@H](O)CC(=O)N[C@H]1[C@H](OC[C@H]2O[C@H](OP(=O)(O)O)[C@H](NC(=O)C[C@H](O)CCCCCCCCCCC)[C@@H](OC(=O)C[C@H](O)CCCCCCCCCCC)[C@@H]2O)O[C@H](CO)[C@@H](OP(=O)(O)O)[C@@H]1OC(=O)C[C@H](O)CCCCCCCCCCC", "note": "[Lipid IVA]", "values": [{"measurement": "replication of HIV-1BAL (p24 in supernatants)", "setting": "HIV-1BAL", "value": "suppresses the replication of HIV-1BAL in a dose-dependent manner"}, {"measurement": "induction of β chemokines", "setting": "human PBMCs [1]", "value": "WITHOUT INDUCING […] OF β CHEMOKINES"}, {"measurement": "TNFα", "setting": "human PBMCs [2]", "value": "<30", "unit": "pg/mL"}, {"measurement": "IL-1β", "setting": "human PBMCs [3]", "value": "13 ± 1", "unit": "pg/mL"}, {"measurement": "IL-6", "setting": "human PBMCs [3]", "value": "7581 ± 20", "unit": "pg/mL"}]}
{"molecule": "2,3-diacyl-glucosamine-1-phosphate [lipid X]", "values": [{"measurement": "pyrogenicity / toxicity in mice", "setting": "mice", "value": "non-pyrogenic"}]}
{"molecule": "CCCCCC/C=C/CCCCCC(=O)O[C@H](CCCCCCCCCCC)CC(=O)NC1C(OCC2OC(OP(=O)(O)O)C(NC(=O)CC(=O)CCCCCCCCCCC)C(OC(=O)C[C@H](O)CCCCCCC)C2O)OC(CO)C(OP(=O)(O)O)C1OC(=O)C[C@H](O)CCCCCCC", "note": "(some centres unmarked) [RsDPLA, R. sphaeroides diphosphoryl lipid A]", "values": [{"measurement": "level of RANTES after stimulation", "setting": "human PBMCs [1]; human PBMCs", "value": "not significantly elevated"}, {"measurement": "MIP-1α secretion", "setting": "human PBMCs [1]; human PBMCs, various doses", "value": "stimulated the secretion of MIP-1α and MIP-1β in a dose-dependent manner"}, {"measurement": "MIP-1β secretion", "setting": "human PBMCs [1]; human PBMCs, various doses", "value": "stimulated the secretion of MIP-1α and MIP-1β in a dose-dependent manner"}, {"measurement": "time of peak production of chemokines (MIP-1α, MIP-1β) after stimulation", "setting": "human PBMCs [1]; supernatants 8, 16, 24 and 48 hr after stimulation", "value": 24, "unit": "h"}]}
{"molecule": "Cc1cn([C@H]2C[C@H](N=[N+]=[N-])[C@@H](CO)O2)c(=O)[nH]c1=O", "note": "[AZT, 3′-azido-2′,3′-dideoxythymidine]", "values": [{"measurement": "effect on viral load", "setting": "HIV-1", "value": "about 1 log reduction"}]}
